Columns and labels:
[1] = Storage stability of ivermectin in extruded dog food (HPLC content, frozen versus ambient); format: physicochemical
Description: Following this treatment, the product was dried to a moisture level of less than 10% by weight. Three samples from the dryer were subsequently frozen and another […] placed in a plastic bag and stored at room temperature, for a period in excess of six months.
The products resulting from this test were analyzed to determine the content of ivermectin in the samples. In this analysis, each feed sample was ground in a Retsch mill at low speed using a 2 mm grating screen, so that the ground material would pass through a #10 mesh screen. A total of six samples, three frozen and three stored at room temperature, were processed. In each case, three 37.5 g of a sample was placed in a 250 ml bottle and 100 ml of methanol was added. The bottle was capped, the sample was sonicated for 20 minutes and shaken for 1 hour. 40 ml of the extract was added to a centrifuge tube and centrifuged for 5 minutes at 2000 rpm. 20 ml of the supernatant solution was then passed through a alumina column. The first five ml was rejected and the remainder of the liquid through the column was collected as a purified sample. 2 ml of the purified sample was mixed with a 5 ml mixture of acetonitrile:water (1:1), and a solid phase extraction (SPE) was performed in accordance with the procedure described in Doherty et al., Analytical Chemists International, 81:869(4) (1998). […]

[2] = Ivermectin content of dog blood after ad libitum feeding of ivermectin-containing dog food (HPLC); format: in vivo; conditions: female mixed breed dog about 10 kg; Example 2 feed (approx. 1121.1 μg ivermectin/kg db) ad libitum; blood drawn four hours after eating, day 7 and seven days later
Description: The dog food from this run was fed ad libitum to an intact female mixed breed dog weighing about 10 kg. On day 7, blood was drawn from the dog four hours after eating and stored in an anti-coagulant tube with calcium EDTA in a refrigerator. Seven days later, the same dog was again fed the ivermectin-containing feed ad libitum and blood was collected four hours post-feeding. This sample was also refrigerated in the same fashion as the first sample.
The blood samples were then analyzed to determine the content of ivermectin therein, using HPLC. The procedure used was described in Diclidnson, Journal of Chromatography, 58:250-257 (1990). In this procedure, 0.5 ml of each blood sample was purified using solid phase extraction (SPE) cartridges and dissolved in a small volume of mobile phase for injection onto the HPLC column. The method has a limit of detection of about 2 ng/ml and uses an internal standard. After preparation of the internal standard, a standard curve is constructed using ivermectin-spiked blood samples. A known 1% ivermectin sample was used as the primary standard.
The blood samples from the dog were then analyzed for ivermectin content with HPLC peak heights corrected using the internal standard.

Question: What does the source list for Ivermectin?
Answer: average ivermectin content of the three frozen and the ambient-stored samples ([1]; co-extruded pillow dog food of Example 1, stored frozen or at room temperature in excess of six months, expected content 0.42 μg/kg, HPLC): 0.43 µg/kg; effect of storage conditions (frozen versus ambient) upon ivermectin potency ([1]; dog food of Example 1, frozen versus room temperature in excess of six months): little effect; ivermectin in dog blood samples [2]: 5 to 8 ng/mL

Source: US20040234580A1, “Animal feeds including actives and methods of using the same” (priority 2001, published 2004)
